Laboratory results from patent US7341836B2, “Modified cyclic nucleotide gated ion channels” (The Regents of the University of Colorado, priority 2001, dated 2008).
“Also recorded” adds a separate entry of the source.

What was measured:
PDE VI = conditions: cited from earlier work
PDE VII = biological target: T1, PDE VII (UniProt Q9QXQ1); conditions: cited from earlier work
T1 sequence (Q9QXQ1 1-446): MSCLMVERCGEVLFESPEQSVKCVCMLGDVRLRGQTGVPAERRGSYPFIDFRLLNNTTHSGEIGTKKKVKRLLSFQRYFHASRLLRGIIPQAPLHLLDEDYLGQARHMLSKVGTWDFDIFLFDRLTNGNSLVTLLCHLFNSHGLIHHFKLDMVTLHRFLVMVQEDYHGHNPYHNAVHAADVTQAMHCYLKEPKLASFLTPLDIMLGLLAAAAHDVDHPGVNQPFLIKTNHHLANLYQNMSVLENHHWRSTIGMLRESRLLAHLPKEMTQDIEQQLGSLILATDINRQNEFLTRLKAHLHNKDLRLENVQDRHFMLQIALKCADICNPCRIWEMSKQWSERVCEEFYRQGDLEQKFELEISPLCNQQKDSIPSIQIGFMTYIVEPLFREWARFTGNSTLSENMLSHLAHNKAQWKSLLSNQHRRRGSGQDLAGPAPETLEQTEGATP

PDE III = conditions: cited from earlier work
PDE I = conditions: cited from earlier work
PDE IX = biological target: T2, PDE IX (UniProt O70628); conditions: read-out: IC50, PDE IX; cited from earlier work
T2 sequence (O70628 1-534): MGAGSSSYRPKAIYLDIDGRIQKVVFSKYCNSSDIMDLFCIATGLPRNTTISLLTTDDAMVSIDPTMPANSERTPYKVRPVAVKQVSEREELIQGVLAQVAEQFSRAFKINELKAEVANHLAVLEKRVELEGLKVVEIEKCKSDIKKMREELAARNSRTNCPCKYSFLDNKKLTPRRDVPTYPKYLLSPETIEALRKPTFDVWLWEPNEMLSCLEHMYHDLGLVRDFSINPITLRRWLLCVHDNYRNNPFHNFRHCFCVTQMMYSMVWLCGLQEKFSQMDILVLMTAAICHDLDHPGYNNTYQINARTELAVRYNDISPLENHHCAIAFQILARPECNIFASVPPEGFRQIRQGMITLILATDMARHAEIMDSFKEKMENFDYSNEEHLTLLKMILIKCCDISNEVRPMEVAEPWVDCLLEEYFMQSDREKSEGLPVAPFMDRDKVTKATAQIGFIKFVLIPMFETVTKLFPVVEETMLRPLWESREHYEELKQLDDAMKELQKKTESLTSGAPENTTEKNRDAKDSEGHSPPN

[1] = tested on: PDE activity in GH4C1 cells; assay: Effect of PDE inhibitors, forskolin and VIP on cAMP levels (Ca2+ influx through CNG channels); type: cell-based, rat; conditions: for d(ΔF/F0)/dt: basal cAMP, inhibitor concentration (μM)
Description: To further test the utility of this approach, PDE activity in excitable GH4C1 pituitary cells was examined. In all of the experiments shown (See, FIGS. 13-14, and Table 2), 1 μM nimodipine was added at time zero to block Ca^2+ influx though voltage-gated Ca^2+ channels (triggered by membrane depolarization due to Ca^2+ and Na^+ influx through CNG channels). […] FIGS. 13 and 14 each depict experiments done on a single batch of cells. As before, similar results were obtained on three other batches. In the experiments that produced the data shown in Table 2, cAMP concentrations were monitored using Ca^2+ influx through C460W/E583M channels. […] Either 100 μM IBMX or vehicle (-IBMX; control) were added at time zero. Then, 50 μM forskolin were added at 180 seconds d(ΔF/F0)/dt, which is proportional to the Ca^2+ influx rate, was estimated as described in the Examples. Data are provided as mean±standard error. IBMX or vehicle was added at 60 seconds (first arrow in FIG. 13). Either 10 μM forskolin or 100 nM VIP were added at 240 seconds (second arrow in FIG. 13). In the absence of IBMX, large forskolin or VIP-induced increases in Ca^2+ influx were observed. […] This level of basal AC activity was quite different from that observed in HEK-293 cells (See, FIGS. 9 and 10). 1 μM nimodipine was added at time 0 to block endogenous voltage-gated Ca^2+ channels.
To identify the PDE family or families that regulate the local cAMP concentration in GH4C1 cells, cAMP accumulation was monitored in the presence and absence of PDE inhibitors (See, Table 2). Again, the high cAMP affinity C460W/E583M channels were used. PDE inhibitors were added at 60 s. Although the addition of IBMX alone triggered Ca^2+ influx, 10 μM forskolin were added at 240 s as a positive control for CNG channel activity. […] This PDE is likely to have a low Km for cAMP because it is capable of regulating cAMP at concentrations too low for the WT or Δ61-90/C460W/E583M channels to detect. Thus, it is contemplated that a Ca^2+-CaM stimulated PDE (type I) is primarily responsible for controlling basal cAMP signals in GH4C1 cells.
In addition, PDE activity was monitored using Δ61-90/C460W/E583M channels to detect changes in cAMP concentration (See, FIG. 14). PDE inhibitors and forskolin were added as described above. With this construct, it was not possible to observe changes in cAMP concentration due to inhibition of PDE activity alone. […] Inhibitors specific to other PDE types had no effect on the forskolin-induced Ca^2+ influx (data not shown). […] It is contemplated that Ca^2+ influx through the C460W/E583M channels was saturated at cAMP concentrations below the Km for this PDE. Thus, it is contemplated that there are two different PDE types that regulate local cAMP signals in GH4C1 cells: a low Km, 8-methoxymethyl-IBMX sensitive PDE (type I); and a high Km, RO-20-1724-, rolipram-sensitive PDE (type IV).
GH4C1 rat pituitary cells (ATCC) were maintained in 13 mL Ham's F-10 medium (Life Technologies) supplemented with 14.3 mM NaHCO3, 15% donor horse serum (Gemini), and 2.5% fetal bovine serum, pH 6.8, in 75 cm^2 flasks at 37° C. in a humidified atmosphere of 95% air and 5% CO2. Cells were split weekly (1:4) and washed with fresh medium twice weekly. Cells were plated at ˜60% confluence in 100 mm culture dishes twenty-four hours prior to infection with the CNG-channel-encoding adenovirus constructs (multiplicity of infection=50 plaque forming units per cell). Forty-eight hours post-infection cells were detached, resuspended in serum-containing medium, and assayed within 12 hours.
In this Example, experiments conducted to examine the response of excitable GH4C1 pituitary cells to stimulation by either forskolin or the hormone vasoactive intestinal peptide (VIP), in the presence of absence of PDE inhibitors are described. […]

PDE VIII = biological target: T3, PDE VIII (Mus musculus, UniProt O88502); conditions: cited from earlier work
T3 construct: host or cells: heterologously expressed
T3 sequence (O88502 1-823): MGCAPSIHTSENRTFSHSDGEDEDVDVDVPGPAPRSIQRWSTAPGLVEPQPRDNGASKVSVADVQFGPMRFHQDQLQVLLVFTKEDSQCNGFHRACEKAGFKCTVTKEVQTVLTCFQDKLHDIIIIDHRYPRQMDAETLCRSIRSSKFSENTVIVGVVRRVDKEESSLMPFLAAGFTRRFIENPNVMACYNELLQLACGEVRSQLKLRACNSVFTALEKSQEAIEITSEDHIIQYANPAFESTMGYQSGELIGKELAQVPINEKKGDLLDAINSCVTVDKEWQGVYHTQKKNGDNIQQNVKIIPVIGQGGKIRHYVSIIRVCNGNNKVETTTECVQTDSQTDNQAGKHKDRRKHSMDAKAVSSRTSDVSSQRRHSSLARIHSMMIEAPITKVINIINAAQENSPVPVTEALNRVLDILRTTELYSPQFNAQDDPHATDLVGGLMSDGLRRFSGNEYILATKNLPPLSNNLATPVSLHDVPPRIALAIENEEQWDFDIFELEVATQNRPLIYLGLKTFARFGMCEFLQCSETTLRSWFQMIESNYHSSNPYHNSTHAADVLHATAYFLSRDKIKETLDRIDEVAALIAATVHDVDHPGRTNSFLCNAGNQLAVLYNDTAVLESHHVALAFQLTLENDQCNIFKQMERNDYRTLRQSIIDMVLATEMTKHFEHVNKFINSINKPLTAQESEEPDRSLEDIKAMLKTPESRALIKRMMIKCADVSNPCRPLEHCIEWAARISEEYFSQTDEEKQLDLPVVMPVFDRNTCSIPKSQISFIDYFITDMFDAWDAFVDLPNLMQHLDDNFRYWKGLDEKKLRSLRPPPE

PDE IV = conditions: cited from earlier work

Row | Compound | IC50 (PDE VI) [µM] | IC50 (PDE VII) [µM] | IC50 (PDE III) [µM] | IC50 (PDE I) [µM] | IC50 (PDE IX) [µM] | d(ΔF/F0)/dt ([1]; C460W/E583M channels) [s⁻¹] | IC50 (PDE VIII) [µM] | IC50 (PDE IV) [µM] | Ca2+ influx induced by the PDE inhibitor alone (basal cAMP) ([1]; C460W/E583M channels, no AC stimulation) | effect on forskolin-induced Ca2+ influx / PDE activity ([1]; Δ61-90/C460W/E583M channels, 10 μM forskolin)
1 | CCCOc1ccccc1-c1nc2nn[nH]c2c(=O)[nH]1 [Zaprinast] | 0.15 | > 50 | 10 | 3 to 10 | 29 to 35 | 0 | > 100 | – | – | –
2 | COCc1nc2c([nH]1)c(=O)n(C)c(=O)n2CC(C)C [8-methoxymethyl-IBMX] | – | – | 69 | 2 to 8 | – | 0.0025 ± 0.0009 | – | > 100 | induced Ca^2+ influx through CNG channels | significantly inhibited PDE activity; also recorded: increase forskolin-induced Ca^2+ influx through CNG channels
